Here are results for 20 compounds from US9458104B2 (priority 2012, dated 2016).

Experiment [1] deals with T1, RORγ (UniProt P51449).
T1 construct: hRORg-LBD|aa259-518|NP_005051.2; hRORgt|aa1-497|NP_001001523 (RORg, t isoform, 497aa); mRORg-LBD|aa264-516|NP_035411
T1 sequence (P51449 1-518): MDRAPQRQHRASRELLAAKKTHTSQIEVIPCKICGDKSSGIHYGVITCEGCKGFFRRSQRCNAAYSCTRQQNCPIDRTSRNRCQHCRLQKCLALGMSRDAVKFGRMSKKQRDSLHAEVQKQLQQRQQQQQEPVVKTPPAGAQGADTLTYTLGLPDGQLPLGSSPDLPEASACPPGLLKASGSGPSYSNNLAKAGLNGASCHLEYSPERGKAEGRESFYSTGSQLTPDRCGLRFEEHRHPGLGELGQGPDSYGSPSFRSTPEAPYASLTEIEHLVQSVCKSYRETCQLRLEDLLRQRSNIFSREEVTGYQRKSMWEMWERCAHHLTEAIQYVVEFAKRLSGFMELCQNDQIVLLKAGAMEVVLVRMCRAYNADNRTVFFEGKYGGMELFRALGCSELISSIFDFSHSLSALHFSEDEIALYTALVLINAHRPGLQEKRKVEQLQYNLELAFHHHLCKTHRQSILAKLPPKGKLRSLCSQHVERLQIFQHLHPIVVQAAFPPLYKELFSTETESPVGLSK
Type of experiment: cell-based. As to conditions: 293T cells, 16 h; for pIC50 (FF): firefly (FF) luciferase; for pIC50 (REN): renilla normalised (RENnorm) luciferase. The procedure: Determination of a ligand mediated Gal4 promoter driven transactivation to quantify ligand binding to RORγ was performed as follows: DNA encoding three different RORγ. protein fragments was cloned into vector pCMV-BD (Stratagene). Expression was under control of a CMV promoter and as fusion to the DNA-binding domain of the yeast protein GAL4. Other vectors used were pFR-Luc (Stratagene) as regulated reporter plasmid. pFR-Luc contains a synthetic promoter with five tandem repeats of the yeast GAL4 binding sites that control expression of the Photinus pyralis (American firefly) luciferase gene. In order to improve experimental accuracy the plasmid pRL-CMV was cotransfected. pRL-CMV contains the constitutive CMV promoter, controlling the expression of the Renilla reniformis luciferase.
All Gal4 reporter gene assays were done in 293T cells (DSMZ (German Collection of Microorganisms and Cell Cultures), Braunschweig, Germany, ACC635) grown in Minimum Essential Medium (MEM) with Phenol Red. The medium is supplemented with 10% fetal bovine serum, 0.1 mM nonessential amino acids, 1 mM sodium pyruvate, 1% Glutamax and 100 units Penicilin/[…] per mL at 37° C. in 5% CO2.
For the assay, […] were plated per well in 96 well plates in 100 μL per well, incubated over night at 37° C. in 5% CO2. The following day, medium was discarded and the cells were transiently transfected using 20 μL per well of a OptiMEM—PEI-based transfection-reagent (Sigma-Aldrich, 408727) including the three plasmids described above. About 4 h after addition of the transfection solution, fresh Minimal Essential Medium (MEM, same composition as used for plating cells, but without serum) was added. Then compound stocks, prediluted in MEM (same composition as used for plating cells) were added (final vehicle concentration not exceeding 0.1%).
All experiments were done at least in triplicates.
It is understood that the data illustrated below may have reasonable variation depending on the specific conditions and procedures used by the person conducting the test.

In experiment [2] the target is T2, RORγ ligand binding domain (LBD) (Homo sapiens, UniProt P51449).
T2 construct: made in house; host or cells: E. coli BL-21 (BL3), vector pDEST15
T2 sequence (P51449 269-508 limits assumed): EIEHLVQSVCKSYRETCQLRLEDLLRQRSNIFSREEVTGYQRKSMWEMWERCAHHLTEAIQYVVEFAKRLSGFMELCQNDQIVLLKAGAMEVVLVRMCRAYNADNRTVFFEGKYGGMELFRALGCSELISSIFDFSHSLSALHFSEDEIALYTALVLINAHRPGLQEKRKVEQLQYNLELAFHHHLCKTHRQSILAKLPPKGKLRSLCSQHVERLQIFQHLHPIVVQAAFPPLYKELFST
In words: TR-FRET Activity Assay (ligand sensing assay, RORγ-LBD / coactivator peptide interaction). Type of experiment: biochemical. From the text:
This method measures the ability of putative ligands to modulate the interaction between the purified bacterial expressed RORγ ligand binding domain (LBD) and synthetic N-terminally biotinylated peptides which are derived from nuclear receptor coactivator proteins such as but not limited to SRC1 (NcoA1), SRC2 (NcoA2, TIF2), SRC3 (NcoA3), PGC1α, PGC1β, CBP, GRIP1, TRAP220, RIP140.
The ligand-binding domain (LBD) of RORγ was expressed as fusion protein with GST in […] cells using the vector pDEST15. Cells were lysed by lysozyme-treatment and sonication, and the fusion proteins purified over glutathione sepharose (Pharmacia) according to the manufacturers instructions. For screening of compounds for their influence on the RORγ-peptide interaction, the LANCE technology (Perkin Elmer) was applied. This method relies on the binding dependent energy transfer from a donor to an acceptor fluorophor attached to the binding partner of interest. For ease of handling and reduction of background from compound fluorescence LANCE technology makes use of generic fluorophore labels and time resolved detection assays were done in a final volume of 25 μL in a 384 well plate, in a Tris-based buffer system (20 mM Tris-HCl pH6.8; 60 mM KCl, 1 mM DTT; 5 mM MgCl2; 35 ng/μL BSA), containing 20-60 ng/well recombinantly expressed RORγ-LBD fused to GST, 200-600 nM N-terminally biotinylated peptide, 200 ng/well Streptavidin-xIAPC conjugate (Prozyme) and 6-10 ng/well Eu W1024-antiGST (Perkin Elmer). DMSO content of the samples was kept at 1%.
After generation of the Tris-based buffer system, the potentially RORγ modulating ligands were diluted. […] The LANCE signal was detected by a Perkin Elmer EnVision™ Multilabel Counter. The results were visualized by plotting the ratio between the emitted light at 665 nm and 615 nm. […] Ligands that promote the complex formation induce a concentration-dependent increase in time-resolved fluorescent signal.
To assess the antagonistic potential of the compounds, IC50 values were determined using a Ligand Sensing Assay based on Time-resolved Fluorescence Energy Transfer (TR-FRET) as described above. The normalised TR-FRET assay values, using the following equation: 1000*665 nm measurement value/615 nm measurement value, were transferred to the program GraphPad Prism to generate graphs and dose response curves using the following equation: […]
This is identical to the “four parameter logistic equation”. The IC50 values are calculated using this equation. […] Is is understood that the data illustrated below may have reasonable variation depending on the specific conditions and procedures used by the person conducting the test.

Usually IC50 stands for the concentration at which inhibition is half-maximal. High values mean lower potency, low ones higher potency.

Take `Cc1c(C(=O)NCCC(C)(C)C(=O)O)cn(-c2cc(C(C)(C)C)cc(C3(C)CC3)c2)c1CC1CCCCC1` [1/4]: in experiment [1], the “pIC50 (FF)” value worked out at 7.2 and the “pIC50 (REN)” value was found to be 7.2. For the same compound, the IC50 in experiment [2] is 0.398 µM.
Regarding `Cc1c(C(=O)N[C@H]2C[C@H](C(=O)O)C2)cn(-c2cc(C(C)(C)C)cc(C3(C)CC3)c2)c1CC1CCCCC1` [1/5], in experiment [1], the “pIC50 (FF)” value is given as 7.6 and the “pIC50 (REN)” value came to 8.0. Also, in experiment [2], the IC50 is 1 µM.
In the same order, the values of `Cc1c(C(=O)NC2CCOCC2)cn(-c2ccc(S(=O)(=O)NC(C)(C)C)c(C(C)(C)C)c2)c1CC1CCCCC1` [4/2] are 7.3, 7.5 and 0.631 µM.
With `Cc1c(C(=O)NC2CCOCC2)cn(-c2ccc(S(=O)(=O)NC(C)(C)C)c(C(F)(F)F)c2)c1CC1CCCCC1` [4/3], in experiment [1], the “pIC50 (FF)” value is 7.6 and the “pIC50 (REN)” value is listed as 7.6. Besides, the concentration for half-maximal inhibition (IC50) in experiment [2] is 0.398 µM.
As for `Cn1c(C(=O)NC2CCOCC2)cc(-c2ccc(S(=O)(=O)NC(C)(C)C)c(C(C)(C)C)c2)c1CC1CCCCC1` [8/2], in experiment [1], the “pIC50 (FF)” value is given as 7.1 and the “pIC50 (REN)” value amounted to 7.3. The compound also gave a 50% inhibitory concentration (IC50) in experiment [2] of 0.398 µM.
In the same order, the values of `Cn1c(C(=O)NC2CCOCC2)cc(-c2cc(C(C)(C)C)cc(C3(C)CC3)c2)c1CC1CCCCC1` [8/3] are 7.1, 7.3 and 0.501 µM.
Consider `Cn1c(C(=O)N[C@H]2C[C@H](C(=O)O)C2)cc(-c2ccc(S(=O)(=O)NC(C)(C)C)c3ccccc23)c1CC1CCCCC1` [8/4], for which the “pIC50 (FF)” value in experiment [1] stood at 7.7. In experiment [2], this compound showed an IC50 of 1 µM.
Consider `Cn1c(C(=O)NCC2(O)CCS(=O)(=O)CC2)cc(-c2ccc(S(=O)(=O)NC(C)(C)C)c3ccccc23)c1CC1CCCCC1` [8/5], for which, in experiment [1], the “pIC50 (FF)” value was found to be 7.6 and the “pIC50 (REN)” value is 7.6. Besides, the IC50 in experiment [2] was 1 µM.
Regarding `Cn1c(C(=O)NC2CCS(=O)(=O)CC2)cc(-c2ccc(S(=O)(=O)NC(C)(C)C)c3ccccc23)c1CC1CCCCC1` [8/6], in experiment [1], the “pIC50 (FF)” value was 7.8 and the “pIC50 (REN)” value turned out to be 7.9. Moreover, the IC50 in experiment [2] was 0.501 µM.
`Cn1c(C(=O)N[C@H]2C[C@H](C(=O)O)C2)cc(-c2ccc(S(=O)(=O)NC(C)(C)C)c3ccccc23)c1C(=O)C1CCCCC1` [26/2]: in experiment [1], the “pIC50 (FF)” value was 7.0 and the “pIC50 (REN)” value was found to be 7.2.
For the compound `Cn1c(C(=O)NCC(C)(C)O)cc(-c2ccc(S(=O)(=O)NC(C)(C)C)c3ccccc23)c1C(=O)C1CCCCC1` [26/3], in experiment [1], the “pIC50 (FF)” value is 7.5 and the “pIC50 (REN)” value is recorded as 7.8.
As for `Cn1c(C(=O)NC2CCS(=O)(=O)CC2)cc(-c2ccc(S(=O)(=O)NC(C)(C)C)c3ccccc23)c1C(=O)C1CCCCC1` [26/4], in experiment [1], the “pIC50 (FF)” value is on record as 7.7 and the “pIC50 (REN)” value is 7.8.
As to `Cn1c(C(=O)NCC(C)(C)O)cc(-c2cc(C(C)(C)C)cc(C3(C)CC3)c2)c1C(=O)C1CCCCC1` [Example 26/1], in experiment [1], the “pIC50 (FF)” value turned out to be 7.8 and the “pIC50 (REN)” value amounted to 7.9.
For the compound `CC(C)(C)c1cc(-n2nc(C(=O)N[C@H]3C[C@H](C(=O)O)C3)cc2OC2CCCCC2)cc(C2(C)CC2)c1` [Example 110, trans-3-(1-(3-(tert-Butyl)-5-(1-methylcyclopropyl)phenyl)-5-(cyclohexyloxy)-1H-pyrazole-3-carboxamido)cyclobutanecarboxylic acid], in experiment [1], the “pIC50 (FF)” value is given as “nt/6.5/6.5” and the “pIC50 (REN)” value was “nt/6.5/6.5”.
Take `CC(C)(C)c1cc(-n2nc(C(=O)N[C@H]3C[C@H](C(=O)O)C3)c(Cl)c2OC2CCCCC2)cc(C2(C)CC2)c1` [Example 111, trans-3-(1-(3-(tert-Butyl)-5-(1-methylcyclopropyl)phenyl)-4-chloro-5-(cyclohexyloxy)-1H-pyrazole-3-carboxamido)cyclobutanecarboxylic acid]: in experiment [1], the “pIC50 (FF)” value is recorded as 7.3 and the “pIC50 (REN)” value came to 7.5.
With `CC(C)(C)c1cc(-n2nc(C(=O)NC3CCOCC3)c(Cl)c2OC2CCCCC2)cc(C2(C)CC2)c1` [Example 111/1], in experiment [1], the “pIC50 (FF)” value was “nt/6.6/6.6” and the “pIC50 (REN)” value is on record as “nt/6.6/6.6”.
As for `CC(C)(C)NS(=O)(=O)c1ccc(-c2c(Cl)c(C(=O)NC34CCC(C(=O)O)(CC3)CC4)nn2CC2CCCCC2)c(Cl)c1Cl` [Example 113, 4-(5-(4-(N-(tert-Butyl)sulfamoyl)-2,3-dichlorophenyl)-4-chloro-1-(cyclohexylmethyl)-1H-pyrazole-3-carboxamido)bicyclo[2.2.2]octane-1-carboxylic acid], in experiment [1], the “pIC50 (FF)” value was 7.5 and the “pIC50 (REN)” value is given as 7.6.
Take `CC(C)(C)NS(=O)(=O)c1ccc(-n2nc(C(=O)N[C@H]3C[C@H](C(=O)O)C3)c(Cl)c2CC2CCCCC2)c2ccccc12` [Example 114, (trans)-3-(1-(4-(N-(tert-Butyl)sulfamoyl)naphthalen-1-yl)-4-chloro-5-(cyclohexyl-methyl)-1H-pyrazole-3-carboxamido)cyclobutanecarboxylic acid]: in experiment [1], the “pIC50 (FF)” value is “nt/6.8/6.8” and the “pIC50 (REN)” value is “nt/6.8/6.8”.
In the case of `CC(C)(C)NS(=O)(=O)c1ccc(-n2nc(C(=O)NC3CCS(=O)(=O)CC3)c(Cl)c2CC2CCCCC2)c2ccccc12` [Example 114/1], in experiment [1], the “pIC50 (FF)” value is 6.9 and the “pIC50 (REN)” value was determined as 7.0.
Taken in the same sequence, the figures for `Cc1c(C(=O)NC2CCS(=O)(=O)CC2)nc(-c2ccc(S(=O)(=O)NC(C)(C)C)c3ccccc23)n1CC1CCCCC1` [Example 320, 2-(4-(N-(tert-Butyl)sulfamoyl)naphthalen-1-yl)-1-(cyclohexylmethyl)-N-(1,1-dioxidotetrahydro-2H-thiopyran-4-yl)-5-methyl-1H-imidazole-4-carboxamide] were 5.9 and 6.0.
